# Measured values from patent publication US20240409538A1, “SUBSTITUTED TRIAZOLOHETEROARYL COMPOUNDS AS USP1 INHIBITORS AND THE USE THEREOF” (IMPACT THERAPEUTICS (SHANGHAI), INC., priority 2021, published 2024).
# Key:
# [1] = system: BRCA mutant human breast cancer MDA-MB-436 cell line; experiment: Growth inhibition of MDA-MB-436 cells, CTG (Celltiter-Glo) method; type: cell-based; details: MDA-MB-436, 168 h, 7 days incubation, read-out: IC50 (nM), inhibition of proliferation of MDA-MB-436 cells, CTG method
# Protocol: (§1) The cells were cultured in complete medium (DMEM medium+10% FBS+Insulin+glutathione). When the confluence reached about 80%, cells were digested and gently dispensed from the bottom of the dish with a 1 mL pipette. Cell suspension was collected and centrifuged at 500 rpm for 3 min. The supernatant was discarded, and the cell pellet were re-suspended in complete medium. The cells were seeded into a culture dish at an appropriate proportion, and then cultured in a 5% CO2 incubator at 37° C. The assay was carried out when the cells were in optimum condition and the confluence was reached 80%. Cells in the logarithmic growth phase were taken to centrifugate, and the culture supernatant was removed. The cells were resuspended in refresh complete medium and counted. The resuspended cells were seeded at 3000/well in a 96-well plate and incubated at 37° C., 5% CO2 incubator overnight. The compound was prepared as below: 1000× dilution tested compound solution to 40× test compound solution by adding 5 μL 1000× compound solution to 120 μL Medium (25-fold dilution). The solution was mixed by oscillation, 0.1% DMSO was used as the control.
# (§2) The next day, the 96-well plate inoculated with cells was taken out from the incubator, and the culture supernatant was removed. Then fresh medium of 195 uL/well and 5 μL/well of 40× test compound solution as mentioned above were added into the 96 well plate, respectively. Finally, the plate was incubated for 7 days in a 37° C. 5% CO2 incubator. The medium containing compound was changed on the fourth day.
# CTG Method: After 7 days, 100 μL Celltiter-Glo reagent was added to each well, and then the plate was shake for 2 minutes to fully lysate. Then the plate was incubated at room temperature for 10 minutes, and the chemiluminescence values were read by plate reader.
# The inhibitory activity of compounds on cell proliferation was plotted using cell survival rate against the compound concentration as coordinates. Cell inhibition rate %=(Lumcompound−LumDMSO)/(Lummedium−LumDMSO)×100. Lum refers to the chemiluminescence value.
# XL Fit software was used to Fit nonlinear s-curve regression to Fit the data to obtain dose-effect curves, from which IC50 values were calculated. Y=Bottom+(Top−Bottom)/(1+10^((Log IC50−X)×slope)), Where Y is the cell inhibition rate, X is the compound concentration, Bottom is the lowest inhibition rate. Top is the highest inhibition rate.
# Table 2 summarizes the inhibitory effect data (IC50) of the compounds on the proliferation of human breast cancer cells MDA-MB-436 determined by CTG method.
# [2] = system: BRCA mutant human breast cancer MDA-MB-436 cell line; experiment: Growth inhibition of MDA-MB-436 cells, CCK-8 method; type: cell-based; details: MDA-MB-436, 168 h, 7 days incubation, read-out: IC50 (nM), inhibition of proliferation of MDA-MB-436 cells, CCK-8 method
# Protocol: as §1, §2
# CCK Method: After 7 days, 20 μL of CCK-8 was added to each well and shaken gently, then was cultured for 4 hours. The plate was shaken for 5 min after incubation, the absorbance values of 450 nm or 650 nm wavelengths were recorded respectively (OD=absorbance value of 450 nm−absorbance value of 650 nm) by using the multifunction readout instrument.
# Data were analyzed by software GraphPad Prism 6.0. The inhibitory activity of compounds on cell proliferation was plotted using cell survival rate against the compound concentration as coordinates. Cell survival rate %=(ODcompound−ODbackground)/(ODDMSO−ODbackground)×100. The IC50 value was fitted by the s-shaped dose response curve equation: Y=100/(1+10^(log C−log IC50)), and C was the compound concentration.
# Table 3 summarizes the inhibitory effect data (IC50) of the compounds on the proliferation of human breast cancer cells MDA-MB-436 determined by CCK-8 method.
# USP1/UAF1 = USP1/UAF1 (Homo sapiens (Human), UniProt O94782); experiment: USP1/UAF1 activity, ubiquitin-rhodamine110-glycine (Ub-Rho) assay; type: biochemical; details: 0.1 nM USP1/UAF1, 100 nM Ub-Rho, 120 minutes; read-out: IC50 (nM), inhibitory effects on USP1/UAF1 activity
# Protocol: USP1/UAF1 activity was determined by using ubiquitin-rhodamine110-glycine (Ub-Rho; Boston Biochem) assay. Enzymatic reactions were conducted in an assay buffer (50 mM Tris-HCl, pH 7.8, 0.5 mM EDTA, 100 mM NaCl, 1 mM DTT, 0.01 BSA, and 0.01% Tween-20) that contained 0.1 nM USP1/UAF1. Each individual compound was tested at ten concentrations in the range of 0.0005 to 10 μM. The plates were incubated for 15 min to attain equilibrium, and then the enzymatic reaction was initiated by dispensing 10 μL of Ub-Rho solution (100 nM final concentration). After treating 120 minutes with Ub-Rho solution, the rhodamine fluorescence was acquired using a 480 nm excitation/540 nm emission filter set by using Envision instrument. The inhibition rate of the compound to USP1/UAF1 enzyme activity was calculated according to the following formula.
# IC50 value is obtained by fitting the s-shaped dose response curve equation by using XL Fit software. The curve equation is Y=100/(1+10^(log C−log IC50)). C is the compound concentration.
# Sequence of USP1/UAF1 (O94782 whole entry): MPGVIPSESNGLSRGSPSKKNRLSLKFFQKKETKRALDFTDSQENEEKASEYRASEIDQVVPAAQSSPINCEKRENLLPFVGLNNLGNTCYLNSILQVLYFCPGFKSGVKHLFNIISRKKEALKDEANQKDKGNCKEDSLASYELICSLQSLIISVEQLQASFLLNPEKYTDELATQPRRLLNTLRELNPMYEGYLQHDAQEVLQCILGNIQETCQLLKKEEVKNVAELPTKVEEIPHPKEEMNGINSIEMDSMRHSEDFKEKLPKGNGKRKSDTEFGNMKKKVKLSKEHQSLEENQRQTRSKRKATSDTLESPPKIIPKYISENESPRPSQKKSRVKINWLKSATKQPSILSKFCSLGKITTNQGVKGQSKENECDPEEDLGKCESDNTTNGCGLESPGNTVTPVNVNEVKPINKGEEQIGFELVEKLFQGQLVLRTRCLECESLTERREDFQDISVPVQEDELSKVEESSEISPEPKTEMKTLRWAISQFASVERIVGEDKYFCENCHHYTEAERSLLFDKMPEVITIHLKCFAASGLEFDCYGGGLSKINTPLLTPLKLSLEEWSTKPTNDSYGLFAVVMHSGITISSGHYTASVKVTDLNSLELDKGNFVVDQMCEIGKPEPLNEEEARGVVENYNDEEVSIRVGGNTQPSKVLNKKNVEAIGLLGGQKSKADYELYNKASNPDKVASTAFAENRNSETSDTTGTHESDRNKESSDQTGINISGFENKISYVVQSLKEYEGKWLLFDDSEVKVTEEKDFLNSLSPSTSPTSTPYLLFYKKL
# Sequence of USP1/UAF1 (Q8TAF3 whole entry partner): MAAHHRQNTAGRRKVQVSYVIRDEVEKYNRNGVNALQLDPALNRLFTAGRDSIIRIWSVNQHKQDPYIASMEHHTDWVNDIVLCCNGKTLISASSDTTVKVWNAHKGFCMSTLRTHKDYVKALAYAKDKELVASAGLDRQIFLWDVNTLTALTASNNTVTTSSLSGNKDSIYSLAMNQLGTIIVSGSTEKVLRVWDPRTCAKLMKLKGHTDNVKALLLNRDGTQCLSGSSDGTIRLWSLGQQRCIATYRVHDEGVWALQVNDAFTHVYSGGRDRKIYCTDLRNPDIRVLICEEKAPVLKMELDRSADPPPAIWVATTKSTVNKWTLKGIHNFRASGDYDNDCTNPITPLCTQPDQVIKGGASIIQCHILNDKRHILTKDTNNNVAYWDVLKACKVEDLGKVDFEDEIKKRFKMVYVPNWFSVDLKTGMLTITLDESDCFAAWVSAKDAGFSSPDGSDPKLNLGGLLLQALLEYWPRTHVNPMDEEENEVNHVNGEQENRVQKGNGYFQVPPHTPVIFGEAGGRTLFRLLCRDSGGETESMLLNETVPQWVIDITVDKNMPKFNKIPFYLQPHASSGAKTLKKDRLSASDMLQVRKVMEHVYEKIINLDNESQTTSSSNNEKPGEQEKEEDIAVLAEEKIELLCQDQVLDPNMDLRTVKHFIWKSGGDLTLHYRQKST
Compound,IC50 [1],IC50 [2],IC50 (USP1/UAF1)
"COc1ccccc1-c1nc2c(Cc3ccc(-c4nc(C)cn4C)cc3)cccn2n1 [Example 2, 8-(4-(1,4-dimethyl-1H-imidazol-2-yl)benzyl)-2-(2-methoxyphenyl)-[1,2,4]triazolo[1,5-a]pyridine]",> 1000 nM,,
"COc1ncnc(C2CC2)c1-c1nc2c(Cc3ccc(-c4nc(C(F)(F)F)cn4C(C)C)cc3)cccn2n1 [Example 4, 2-(4-cyclopropyl-6-methoxypyrimidin-5-yl)-8-(4-(1-isopropyl-4-(trifluoromethyl)-1H-imidazol-2-yl)benzyl)-[1,2,4]triazolo[1,5-a]pyridine]",,25.5 nM,66.6 nM
"Cc1cn(C)c(-c2ccc(Cc3cccn4nc(-c5ccccc5C(C)C)nc34)cc2)n1 [Example 1, 8-(4-(1,4-dimethyl-1H-imidazol-2-yl)benzyl)-2-(2-isopropylphenyl)-[1,2,4]triazolo[1,5-a]pyridine]",161 nM,,
"CC(C)c1ccccc1-c1nc2c(Cc3ccc(-c4nc(C(F)(F)F)cn4C)cc3)ccnn2n1 [Example 9, 2-(2-isopropylphenyl)-8-(4-(1-methyl-4-(trifluoromethyl)-1H-imidazol-2-yl)benzyl)-[1,2,4]triazolo[1,5-b]pyridazine]",,1170 nM,
"COc1ncnc(C2CC2)c1-c1nc2c(Cc3ccc(-n4nc(C(F)(F)F)cc4C)cc3)cccn2n1 [Example 6, 2-(4-cyclopropyl-6-methoxypyrimidin-5-yl)-8-(4-(5-methyl-3-(trifluoromethyl)-1H-pyrazol-1-yl)benzyl)-[1,2,4]triazolo[1,5-a]pyridine]",,28.3 nM,460 nM
"COc1ncnc(C2CC2)c1-c1nc2c(Cc3ccc(-c4nc(C(F)(F)F)cn4C)cc3)cccn2n1 [Example 5, 2-(4-cyclopropyl-6-methoxypyrimidin-5-yl)-8-(4-(1-methyl-4-(trifluoromethyl)-1H-imidazol-2-yl)benzyl)-[1,2,4]triazolo[1,5-a]pyridine]",,38.8 nM,39.1 nM
"CC(C)c1ccccc1-c1nc2c(Cc3ccc(-c4nc(C(F)(F)F)cn4C)cc3)cccn2n1 [Example 3, 2-(2-isopropylphenyl)-8-(4-(1-methyl-4-(trifluoromethyl)-1H-imidazol-2-yl)benzyl)-[1,2,4]triazolo[1,5-a]pyridine]",57.6 nM,111 nM,
"CC(C)c1ccccc1-c1nc2cccc(Cc3ccc(-c4nc(C(F)(F)F)cn4C)cc3)n2n1 [Example 10, 2-(2-isopropylphenyl)-5-(4-(1-methyl-4-(trifluoromethyl)-1H-imidazol-2-yl)benzyl)-[1,2,4]triazolo[1,5-a]pyridine]",,226 nM,

# Continued, values first:
IC50 [1],IC50 [2],IC50 (USP1/UAF1),Compound
,44.8 nM,138 nM,"COc1ncnc(C2CC2)c1-c1nc2c(Cc3ccc(-c4nc(C(F)(F)F)cn4C)cc3)cncn2n1 [Example 19, 2-(4-cyclopropyl-6-methoxypyrimidin-5-yl)-8-(4-(1-methyl-4-(trifluoromethyl)-1H-imidazol-2-yl)benzyl)-[1,2,4]triazolo[1,5-c]pyrimidine]"
496 nM,,175 nM,"COc1ncnc(C2CC2)c1-c1nc2nccc(Cc3ccc(-c4nc(C(F)(F)F)cn4C)cc3)n2n1 [Example 23, 2-(4-cyclopropyl-6-methoxypyrimidin-5-yl)-7-(4-(1-methyl-4-(trifluoromethyl)-1H-imidazol-2-yl)benzyl)-[1,2,4]triazolo[1,5-a]pyrimidine]"
40.6 nM,,26 nM,"COc1ncnc(C2CCC2)c1-c1nc2c(Cc3ccc(-c4nc(C(F)(F)F)cn4C)cc3)cccn2n1 [Example 28, 2-(4-cyclobutyl-6-methoxypyrimidin-5-yl)-8-(4-(1-methyl-4-(trifluoromethyl)-1H-imidazol-2-yl)benzyl)-[1,2,4]triazolo[1,5-a]pyridine]"
,10.3 nM,,"Cc1cnn(C(C)C)c1-c1nc2cccc(Cc3ccc(-c4nc(C(F)(F)F)cn4C)cc3)n2n1 [Example 15, 2-(1-isopropyl-4-methyl-1H-pyrazol-5-yl)-5-(4-(1-methyl-4-(trifluoromethyl)-1H-imidazol-2-yl)benzyl)-[1,2,4]triazolo[1,5-a]pyridine]"
21.1 nM,,19.9 nM,"COc1ncnc(C2CC2)c1-c1nc2ccnc(Cc3ccc(-c4nc(C(F)(F)F)cn4C4CC4)cc3)n2n1 [Example 40, 5-(4-(1-cyclopropyl-4-(trifluoromethyl)-1H-imidazol-2-yl)benzyl)-2-(4-cyclopropyl-6-methoxypyrimidin-5-yl)-[1,2,4]triazolo[1,5-c]pyrimidine]"
158 nM,,,"COc1ncnc(OC)c1-c1nc2c(Cc3ccc(-c4nc(C(F)(F)F)cn4C)cc3)cccn2n1 [Example 27, 2-(4,6-dimethoxypyrimidin-5-yl)-8-(4-(1-methyl-4-(trifluoromethyl)-1H-imidazol-2-yl)benzyl)-[1,2,4]triazolo[1,5-a]pyridine]"
21.6 nM,26.4 nM,30.6 nM,"COc1ncnc(C2CC2)c1-c1nc2cccc(Cc3ccc(-c4nc(C(F)(F)F)cn4C)cc3)n2n1 [Example 14, 2-(4-cyclopropyl-6-methoxypyrimidin-5-yl)-5-(4-(1-methyl-4-(trifluoromethyl)-1H-imidazol-2-yl)benzyl)-[1,2,4]triazolo[1,5-a]pyridine]"
,13.2 nM,15.8 nM,"Cc1cnn(C(C)C)c1-c1nc2c(Cc3ccc(-c4nc(C(F)(F)F)cn4C)cc3)cccn2n1 [Example 16, 2-(1-isopropyl-4-methyl-1H-pyrazol-5-yl)-8-(4-(1-methyl-4-(trifluoromethyl)-1H-imidazol-2-yl)benzyl)-[1,2,4]triazolo[1,5-a]pyridine]"
,39.5 nM,,"Cc1cnn(C(C)C)c1-c1nc2c(Cc3ccc(-c4nc(C(F)(F)F)cn4C)cc3)ccnn2n1 [Example 17, 2-(1-isopropyl-4-methyl-1H-pyrazol-5-yl)-8-(4-(1-methyl-4-(trifluoromethyl)-1H-imidazol-2-yl)benzyl)-[1,2,4]triazolo[1,5-b]pyridazine]"
227 nM,,147 nM,"COc1ncnc(C2CC2)c1-c1nc2cncc(Cc3ccc(-c4nc(C(F)(F)F)cn4C)cc3)n2n1 [Example 22, 2-(4-cyclopropyl-6-methoxypyrimidin-5-yl)-5-(4-(1-methyl-4-(trifluoromethyl)-1H-imidazol-2-yl)benzyl)-[1,2,4]triazolo[1,5-a]pyrazine]"
55.3 nM,,34.2 nM,"COc1ncnc(C2CC2)c1-c1nc2ccnc(Cc3ccc(-c4nc(C(F)(F)F)cn4C)c(F)c3)n2n1 [Example 41, 2-(4-cyclopropyl-6-methoxypyrimidin-5-yl)-5-(3-fluoro-4-(1-methyl-4-(trifluoromethyl)-1H-imidazol-2-yl)benzyl)-[1,2,4]triazolo[1,5-c]pyrimidine]"
